Laboratory results from publication PMC5011342, “A high throughput drug screening assay to identify compounds that promote oligodendrocyte differentiation using acutely dissociated and purified oligodendrocyte precursor cells” (BMC Research Notes, 2016).
Where two headings read alike, the source gives them in different places.

Key:
expanded OPCs = assay: cells; settings: for viability at 0.1 µM / viability at 1 µM / viability at 10 µM: Rattus norvegicus, 72 h; for 0.1 µM (% DMSO) / 1 µM (% DMSO) / 10 µM (% DMSO): alamarBlue viability of expanded OPCs, relative to DMSO control; for 0.1 µM (% DMSO): compound at 0.1 µM; for 1 µM (% DMSO): compound at 1 µM; for 10 µM (% DMSO): compound at 10 µM
Method: Having established a consistent assay for measuring OL differentiation in vitro, the next step was to utilize this assay to assess the ability of a wide array of compounds to promote OL differentiation. Prior to library screening, we first established the maximum non-toxic dose of each compound in the library. […] Therefore, we added each compound in the NIH clinical collection (NCC) library to OPCs at 10, 1, and 0.1 µM concentrations. Three days later, we assessed viability of the treated cells by measuring AlamarBlue fluorescence, a measure of cell viability (see “Methods” section). […] Appropriately, we established three sets of screening concentrations for library compounds: non-toxic compounds were tested at 10 and 2 µM, slightly toxic compounds (only toxic at 10 µM) were tested at 2 and 0.4 µM, and very toxic compounds were tested at 0.4 and 0.08 µM.
OPCs were expanded in vitro by seeding into PDL-coated tissue culture flasks at 1000–2000 cells/cm^2 in differentiation media supplemented with 10 ng/ml PDGF-AA. Proliferating OPCs were fed every 2–3 days and supplemented with 2–3× concentration of PDGF as needed to prevent OPC differentiation. After 6–7 days of proliferation, OPCs were harvested by trypsinization, plated into PDL-coated 96-well Falcon plates and centrifuged at 200×g to facilitate cell attachment, survival, and even distribution of cells. Expanded OPCs were seeded in differentiation media at 10,000 cells/well and incubated for 2 h at 37 °C, 10 % CO2 prior to addition of compounds. The NCC library was diluted and added to cells at 10, 1, and 0.1 µM; each concentration was tested in quadruplicate. As a positive control for the induction of toxicity, 5 ng/ml tunicamycin was added to 8 wells in each plate. Three days later, a 1:10 dilution of alamarBlue® (AB) was added to each well and cells were incubated 4 h at 37 °C, 10 % CO2. AB fluorescence was measured using a PerkinElmer Victor II fluorescence microplate reader (PerkinElmer, Waltham, MA) with 560 nm excitation/590 nm emission filters. For library screening, the highest concentration of each compound was adjusted to a minimally toxic concentration based on this toxicity data. Compounds were additionally tested at a second concentration that was 1/5th of the top concentration. The final concentration of DMSO in each well was 0.1 %.

[1] = tested on: acutely dissociated and purified rat OPCs; assay: Acute OL differentiation assay (MBP expression/cell, immunofluorescent image quantification); format: cell-based; settings: Rattus norvegicus, sheet "All OLga data"
Procedure, shortened: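 Oligodendrocyte precursor cells were enriched from P6-P7 Sprague–Dawley rat brains by immunopanning (RAN-2 and GalC depletion, O4 selection), plated at 5000 cells/well in serum-free, mitogen-free differentiation media on PDL/laminin 96-well view plates, centrifuged at 200×g, and pre-incubated 1–2 h before test compounds were added in quadruplicate. On DIV4, cells were fixed, stained for MBP and DAPI, imaged automatically, and MBP expression per cell was quantified.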

[2] = read-out: 0.1 µM (% DMSO), alamarBlue viability of expanded OPCs, compound at 0.1 µM, sheet All Tox data
[3] = read-out: 1 µM (% DMSO), alamarBlue viability of expanded OPCs, compound at 1 µM, sheet All Tox data
[4] = read-out: 10 µM (% DMSO), alamarBlue viability of expanded OPCs, compound at 10 µM, sheet All Tox data
[5] = 2 uM test compound, relative to quetiapine, read-out: OL differentiation, 2 uM (% Quet)
[6] = 10 uM test compound, relative to quetiapine, read-out: OL differentiation, 10 uM (% Quet)
[7] = read-out: 0.1 µM (% DMSO), alamarBlue viability, NCC library compound at 0.1 µM, sheet "All Tox data"
[8] = read-out: 1 µM (% DMSO), alamarBlue viability, NCC library compound at 1 µM, sheet "All Tox data"
[9] = read-out: 10 µM (% DMSO), alamarBlue viability, NCC library compound at 10 µM, sheet "All Tox data"
[10] = test compound at 2 uM, NCC library screen, relative to quetiapine, read-out: 2 uM (% Quet)
[11] = test compound at 10 uM, NCC library screen, relative to quetiapine, read-out: 10 uM (% Quet)
[12] = test compound at 2 uM, MBP expression relative to quetiapine, NCC library screen, read-out: 2 uM (% Quet)
[13] = test compound at 10 uM, MBP expression relative to quetiapine, NCC library screen, read-out: 10 uM (% Quet)

SMILES | viability at 0.1 µM (expanded OPCs; [2]) [%] | viability at 1 µM (expanded OPCs; [3]) [%] | viability at 10 µM (expanded OPCs; [4]) [%] | activation at 2 µM [1, 5] [%] | activation at 10 µM [1, 6] [%] | viability at 0.1 µM (expanded OPCs; [7]) [%] | viability at 1 µM (expanded OPCs; [8]) [%] | viability at 10 µM (expanded OPCs; [9]) [%] | activation at 2 µM [1, 10] [%] | activation at 10 µM [1, 11] [%] | further results
Cc1[nH]cnc1CN1CCc2c(c3ccccc3n2C)C1=O [Alosetron] | 106 | 91.2 | 96.3 | -24 | -21.2 |  |  |  |  |  | 
Cc1nnc2n1-c1ccc(Cl)cc1C(c1ccccc1)=NC2 [Alprazolam] | 102 | 115 | 139 | -12.2 | -116 |  |  |  |  |  | 
CCCCC[C@H](O)/C=C/[C@H]1[C@H](O)CC(=O)[C@@H]1CCCCCCC(=O)O [Alprostadil] |  |  |  |  |  | 84.4 | 85.6 | 81.6 | -7.2 | -67.6 | 
O=C(c1ccc(F)cc1)C1CCN(CCn2c(=S)[nH]c3ccccc3c2=O)CC1 [Altanserin] |  |  |  | -4 | -10 | 107 | 94.1 | 56 |  |  | 
CN(C)c1nc(N(C)C)nc(N(C)C)n1 [Altretamine] |  |  |  |  |  | 94.2 | 87.4 | 85 | -1.1 | -13.9 | 
NC12CC3CC(CC(C3)C1)C2 [Amantadine] |  |  |  |  |  |  |  |  | -21.4 | -19.9 | 0.1 µM (% DMSO) (expanded OPCs): 89.6 % DMSO; 1 µM (% DMSO) (expanded OPCs): 86.9 % DMSO; 10 µM (% DMSO) (expanded OPCs): 77.6 % DMSO
CC(=O)OCC(=O)[C@@]12OC3(CCCC3)O[C@@H]1C[C@H]1[C@@H]3CCC4=CC(=O)C=C[C@]4(C)[C@@]3(F)[C@@H](O)C[C@@]12C [Amcinonide] |  |  |  |  |  |  |  |  |  |  | 0.1 µM (% DMSO) (expanded OPCs): 113.8 % DMSO; 1 µM (% DMSO) (expanded OPCs): 123.7 % DMSO; 10 µM (% DMSO) (expanded OPCs): 114.6 % DMSO; activation at 2 µM [1, 12]: 18.1%; activation at 10 µM [1, 13]: -10.2%
CC1(C)S[C@@H]2[C@H](/N=C/N3CCCCCC3)C(=O)N2[C@H]1C(=O)O [Amdinocillin] | 89.7 | 98.8 | 102 | -15.6 | 5.8 |  |  |  |  |  | 
N=C(N)NC(=O)c1nc(Cl)c(N)nc1N [Amiloride] | 82.2 | 83.7 | 90.8 | -5.9 | -0.4 |  |  |  |  |  | 
CCC1(c2ccc(N)cc2)CCC(=O)NC1=O (centres unmarked) [Aminoglutethimide] |  |  |  |  |  |  |  |  |  |  | 0.1 µM (% DMSO) (expanded OPCs): 94.4 % DMSO; 1 µM (% DMSO) (expanded OPCs): 89.6 % DMSO; 10 µM (% DMSO) (expanded OPCs): 84.0 % DMSO; activation at 2 µM [1, 12]: -11%; activation at 10 µM [1, 13]: -7.7%
NCC(=O)CCC(=O)O [Aminolevulinic Acid] |  |  |  |  |  | 96 | 86.7 | 73.4 | 5.1 | -16.1 | 
CCCCc1oc2ccccc2c1C(=O)c1cc(I)c(OCCN(CC)CC)c(I)c1 [Amiodarone] |  |  |  |  |  | 74.9 | 8.8 | 8.6 |  |  | activation at 0.08 µM ([1]; test compound at 0.08 uM, NCC library screen, relative to quetiapine, read-out: 0.08 uM (% Quet)): 44.2%
